The values that follow come from EPA's ToxRefDB 2.

Data set [1] relates to rat. The following applies: Multigenerational reproductive toxicity study, sprague dawley, Oral, Feed, dose end: 2 generation.
Data set [2] concerns mouse. The following applies: Carcinogenicity; cd1; Oral; Feed; dose end: 18 month; group: systemic; systemic / hematology / erythrocyte (rbc) count differential / erythrocyte (rbc) + systemic / hematology / heinz body / heinz body + ….
The subject of data set [3] is rat. The following applies: Subchronic oral toxicity in rodents, sprague dawley, Feed, dose end: 90 day, group: systemic, systemic / hematology / erythrocyte (rbc) count differential / erythrocyte (rbc) + systemic / hematology / hematocrit (hct) / hematocrit (….
Data set [4] deals with dog. The following applies: Chronic toxicity, beagle, Oral, Capsule, dose end: 52 week, group: systemic.
Data set [5] deals with rat. The following applies: Subchronic oral toxicity in rodents, sprague dawley, Feed, dose end: 90 day, group: systemic.
For data set [6], the system named is rat. To be noted: Combined chronic toxicity/carcinogenicity, other, Oral, Feed, dose end: 104 week, group: systemic.
The subject of data set [7] is mouse. The following applies: Subchronic oral toxicity in rodents, cd1, Feed, dose end: 90 day, group: systemic.
In data set [8] the test system is dog. The following applies: Chronic toxicity; beagle; Oral; Feed; dose end: 52 week; group: systemic; systemic / in life observation / body weight / body weight gain + systemic / organ weight / heart / absolute + systemic / organ weight / ….
Data set [9] relates to rat. To be noted: Combined chronic toxicity/carcinogenicity, sprague dawley, Oral, Feed, dose end: 104 week, group: systemic.
[10] abbreviates: group: offspring, systemic / organ weight / spleen / absolute + systemic / organ weight / spleen / relative to body weight.
[11] abbreviates: group: offspring, systemic / organ weight / spleen / absolute + systemic / organ weight / spleen / relative to body weight + systemic / organ weight / liver….
Setting [12] is: group: parental, systemic / organ weight / spleen / absolute + systemic / organ weight / spleen / relative to body weight.
Where [13] appears, read: group: parental, systemic / organ weight / spleen / relative to body weight + systemic / organ weight / spleen / absolute.
[14] abbreviates: group: reproductive, reproductive / offspring survival early / litter size / litter size.
Setting [15] is: systemic / hematology / jolly bodies / jolly bodies + systemic / hematology / mean corpuscular hemoglobin concentration (mchc) / mean ….
Where [16] appears, read: systemic / hematology / mean corpuscular hemoglobin concentration (mchc) / mean corpuscular hemoglobin concentration (mchc).
[17] abbreviates: systemic / hematology / erythrocyte (rbc) count differential / erythrocyte (rbc) + systemic / hematology / hemoglobin (hgb) / hemoglobin (….
The mark [18] stands for this setting: systemic / hematology / methemoglobin / methemoglobin + systemic / hematology / reticulocyte / reticulocyte + systemic / pathology ….
The mark [19] stands for this setting: systemic / organ weight / spleen / absolute + systemic / urinalysis / volume / volume.
Setting [20] is: systemic / organ weight / spleen / absolute + systemic / organ weight / spleen / relative to body weight + systemic / hematology / ….
Where [21] appears, read: systemic / in life observation / body weight / body weight + systemic / clinical chemistry / phosphorus / phosphate + systemic / clinical ….

Turning to `O=C(NC(=O)c1c(F)cccc1F)Nc1ccc(OC(F)(F)C(F)OC(F)(F)F)c(Cl)c1` (centres undefined) [Novaluron], the LOAEL was 74.2 mg/kg/day in the data set with rat [1] (setting [10]); 74.2 mg/kg/day in the data set on rat [1] (setting [12]); > 895 mg/kg/day in the data set with rat [1] (setting [14]); 53.4 mg/kg/day with mouse [2]; 8.64 mg/kg/day in the data set with rat [3]; 100 mg/kg/day in the data set with dog [4] (setting [15]). Moreover, the LOAEL in the data set with rat [5] (setting [18]) worked out at 818 mg/kg/day; in the data set on rat [6] (systemic / in life observation / clinical signs / anemia), 30.6 mg/kg/day; with mouse [7] (systemic / organ weight / spleen / absolute + systemic / organ weight / spleen / relative to body weight), 136 mg/kg/day. Further, the no observed adverse effect level (NOAEL) is < 74.2 mg/kg/day with rat [1] (setting [10]); < 74.2 mg/kg/day in the data set on rat [1] (setting [12]); ≥ 895 mg/kg/day in the data set on rat [1] (setting [14]); 3.6 mg/kg/day in the data set with mouse [2]; 4.38 mg/kg/day with rat [3]; 10 mg/kg/day in the data set with dog [4] (setting [15]). Further, the figures for the NOAEL with rat [5] (setting [18]), with rat [6] (systemic / in life observation / clinical signs / anemia + systemic / hematology / erythrocyte (rbc) count differential / erythrocyte (rbc…) and in the data set with mouse [7] (setting [20]) were 8.3 mg/kg/day, 1.1 mg/kg/day and 15.2 mg/kg/day, respectively. The LEL is 74.2 mg/kg/day in the data set with rat [1] (setting [11]); 74.2 mg/kg/day in the data set on rat [1] (setting [13]); 895 mg/kg/day in the data set with rat [1] (setting [14]); 53.4 mg/kg/day with mouse [2]; 8.64 mg/kg/day in the data set on rat [3]; 10 mg/kg/day in the data set on dog [4] (setting [16]). For the same compound, the LEL in the data set on rat [5] (setting [17]) amounted to 4.7 mg/kg/day; in the data set on rat [6] (setting [19]) it was 1.4 mg/kg/day; in the data set with mouse [7] (systemic / hematology / erythrocyte (rbc) count differential / erythrocyte (rbc) + systemic / hematology / hematocrit (hct) / hematocrit (…), 15.2 mg/kg/day. Moreover, the NEL with rat [1] (setting [11]) was < 74.2 mg/kg/day; with rat [1] (setting [13]), < 74.2 mg/kg/day; with rat [1] (setting [14]), 298 mg/kg/day; in the data set with mouse [2], 3.6 mg/kg/day; in the data set with rat [3] it was 4.38 mg/kg/day; in the data set with dog [4] (setting [16]) it was < 10 mg/kg/day. Besides, the NEL was < 4.7 mg/kg/day in the data set with rat [5] (setting [17]), < 1.4 mg/kg/day in the data set on rat [6] (setting [19]) and 4.7 mg/kg/day in the data set with mouse [7] (setting [20]).
On to `O=C1CC=C([O-])N=N1.[K+]` [Maleic hydrazide, potassium salt], for which the results for the LEL in the data set with dog [8] and with rat [9] (setting [21]) were 87 mg/kg/day and 500 mg/kg/day, respectively. Moreover, the LOAEL worked out at 87 mg/kg/day in the data set with dog [8] and 500 mg/kg/day in the data set on rat [9] (systemic / in life observation / body weight / body weight). The NEL in the data set on dog [8] and in the data set on rat [9] (systemic / organ weight / kidney / absolute + systemic / organ weight / liver / absolute + systemic / in life observation / body weight / …) was 25 mg/kg/day each time. For the same compound, the NOAEL in the data set with dog [8] and in the data set on rat [9] (setting [21]) was 25 mg/kg/day throughout.
